Measured values published in patent US7202085B2, “Control of gene expression in eukaryotic cells” (Calgene LLC, priority 1999, dated 2007).
Where “and” joins values, the source holds several entries; their conditions need not be identical. Identical values can stand only once. Like-named read-outs stand apart in the source and are kept apart here.

Experiments:
[1] = test system: tra box-GUS reporter
Procedure: Plasmids for transfection were isolated and purified using Megaprep plasmid DNA isolation kit (Qiagen). Carrot protoplasts for transfections were prepared from carrot cell suspension culture and transfected with purified DNA as described (Ulmasov et al., Plant Cell 7:1611–1623, 1995). Briefly, 10 μg of the reporter plasmid and 5 μg of the effector plasmid were incubated with 10^6 protoplasts for five minutes at the room temperature in the presence of polyethylene glycol-calcium solution. After diluting approximately 10-fold with the culture medium, the protoplasts were incubated in the dark for 36 hours either in the presence or absence of the inducer 3-oxohexanoyl-homoserine lactone (OHHL, racemic mixture of the L- and D-isomers, purchased from Sigma Chemical Co., St Louis, Mo.). After incubation, protoplasts were collected by low-speed centrifugation, lysed and the level of GUS activity was measured using fluorometric GUS assay (Jefferson et al., EMBO J. 6:3901–3907, 1987).
Ten μg of the reporter plasmid (pMON53031), and indicated amount of the 35S effector plasmid per reaction was used for transfection in triplicate. […] The “− inducer” and “+ inducer” columns are averages of the GUS activities.
These constructs were tested for background GUS activity and TraR responsiveness in carrot protoplasts.

[2] = test system: VP16-TraR
Procedure: Transgenic Arabidopsis plants containing TraA8(3×)-GUS reporter and 35S-VP16-TraR activator genes (pMON53077) were analyzed for induction of GUS activity. […] GUS assays were conducted as described by Jefferson et al. (supra).
In addition, detached leaves incubated for 24 hours in MS medium with or without 100 μM HSL were visualized for induction of GUS activity after staining.

[3] = target: T1, TraR (Agrobacterium tumefaciens, UniProt P33905); assay: β-galactosidase reporter assay in yeast (TraA8 element, galactose-inducible TraR); format: cell-based; details: strain YPH499, c1.5 and 6, 3 copies of TraA8 element; 5 hrs growth on galactose; 50 μM C8-HSL
T1 construct: expressed in transfected cells; host or cells: Saccharomyces cerevisiae (strain 204142; YPH499)

[4] = test system: VP16-TraR; assay: Transient GUS reporter assay in carrot protoplasts with VP16-TraR effector and tra box reporter; format: cell-based, Agrobacterium tumefaciens; set-up: 4, 5, 6 (replicate GUS activities, +inducer): unit not given here
[5] = Table 7 lane 4: TraA8(3X), cl.4(60 μg) + CAT, 12.5 μM C8-AHL
[6] = Table 7 lane 6: TraA8(3X), cl.4(60 μg) +TraM, 12.5 μM C8-AHL
[7] = Table 7 lane 7: TraA8(3X), cl.4(60 μg) +TraS, 12.5 μM C8-AHL
[8] = Table 8 lane 2: TraA8(4X) +CAT, 25 μM C8-HSL
[9] = Table 6 lane 20: TraA9(3X), cl.8 +HA-VP16-TraR, 12.5 μM C8-AHL

T1 sequence (P33905 whole entry): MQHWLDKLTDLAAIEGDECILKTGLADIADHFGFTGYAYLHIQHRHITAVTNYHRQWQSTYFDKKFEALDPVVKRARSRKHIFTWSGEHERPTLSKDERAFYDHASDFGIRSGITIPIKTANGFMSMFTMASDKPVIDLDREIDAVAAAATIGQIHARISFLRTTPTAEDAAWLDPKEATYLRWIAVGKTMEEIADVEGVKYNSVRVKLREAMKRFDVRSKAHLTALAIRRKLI

**Q.** What does the source list for `CCCCCC(=O)CC(=O)N[C@H]1CCOC1=O` [C8-HSL, 3-oxooctanoyl-L-homoserine lactone]?
**A.** 4, 5, 6 (replicate GUS activities, +inducer) [1, 5]: 76.6 and 75.1 and 58.1; +inducer (average GUS activity) [1, 5]: 70.0; 4, 5, 6 (replicate GUS activities, +inducer) [1, 6]: 105.0 and 102.1 and 86.8; +inducer (average GUS activity) [1, 6]: 98.0; 4, 5, 6 (replicate GUS activities, +inducer) [1, 7]: 143.6 and 128.8 and 134.8; +inducer (average GUS activity) [1, 7]: 135.7; 4, 5, 6 (replicate GUS activities, +inducer) [1, 8]: 1101.9 and 791.0 and 1071.3; +inducer (average GUS activity) [1, 8]: 988.1; histochemical GUS staining ([2]; detached caulline leaves, 24 hours in MS medium, 100 μM HSL): uniform induced activity; +Inducer (GUS activity) ([2]; plant s3553-1): 556.56; +Inducer (GUS activity) ([2]; plant s3553-2): 554.08; +Inducer (GUS activity) ([2]; plant s3554-1): 3101.09; +Inducer (GUS activity) ([2]; plant s3554-2): 3098.61; +Inducer (GUS activity) ([2]; plant s3559-1): 599.93; +Inducer (GUS activity) ([2]; plant s3559-2): 597.45; +Inducer (GUS activity) ([2]; plant s3562-1): 75.93; +Inducer (GUS activity) ([2]; plant s3562-2): 73.45; +Inducer (GUS activity) ([2]; plant s3570-1): 4831.21; +Inducer (GUS activity) ([2]; plant s3570-2): 4828.73; +Inducer (GUS activity) ([2]; plant s3573-1): 768.65; +Inducer (GUS activity) ([2]; plant s3573-2): 766.17; +Inducer (GUS activity) ([2]; plant s3575-1): 3453.00; +Inducer (GUS activity) ([2]; plant s3575-2): 3450.52; +Inducer (GUS activity) ([2]; plant s3582-1): 559.86; +Inducer (GUS activity) ([2]; plant s3582-2): 557.38; +Inducer (GUS activity) ([2]; plant s3594-1): 515.77; +Inducer (GUS activity) ([2]; plant s3594-2): 513.29; +Inducer (GUS activity) ([2]; plant wild-type): 2.48; β-gal activity (chemiluminescent assay) [3]: strong induction; 4, 5, 6 (replicate GUS activities, +inducer) ([4]; Table 5 lane 2: tra box (6X), cl.7 +HA-VP16-TraR, 12.5 μM C8-AHL): 933.8 and 1033.2 and 995.1; 4, 5, 6 (replicate GUS activities, +inducer) ([4]; Table 5 lane 4: traA1(3X), cl.35 +HA-VP16-TraR, 12.5 μM C8-AHL): 1896.4 and 1959.7 and 1968.4; 4, 5, 6 (replicate GUS activities, +inducer) ([4]; Table 5 lane 6: traA2(3X), cl.43 +HA-VP16-TraR, 12.5 μM C8-AHL): 2198.3 and 2341.9 and 2304.6; 4, 5, 6 (replicate GUS activities, +inducer) ([4]; Table 5 lane 8: traA3(3X), cl.4 +HA-VP16-TraR, 12.5 μM C8-AHL): 117.3 and 111.1; 4, 5, 6 (replicate GUS activities, +inducer) ([4]; Table 5 lane 10: traA4(3X), cl.23 +HA-VP16-TraR, 12.5 μM C8-AHL): 142.9 and 112.2 and 113.5; 4, 5, 6 (replicate GUS activities, +inducer) ([4]; Table 5 lane 12: traA5(3X), cl.2 +HA-VP16-TraR, 12.5 μM C8-AHL): 21.3 and 18.5 and 21.8; 4, 5, 6 (replicate GUS activities, +inducer) ([4]; Table 5 lane 14: traA6(3X), cl.21 +HA-VP16-TraR, 12.5 μM C8-AHL): 64.8 and 64.7; 4, 5, 6 (replicate GUS activities, +inducer) ([4]; Table 5 lane 16: traA7(3X), cl.15 +HA-VP16-TraR, 12.5 μM C8-AHL): 237.5 and 226.8 and 240.1; 4, 5, 6 (replicate GUS activities, +inducer) ([4]; Table 5 lane 18: traA8(3X), cl.4 +HA-VP16-TraR, 12.5 μM C8-AHL): 828.8 and 874.3 and 960.9; 4, 5, 6 (replicate GUS activities, +inducer) ([4]; Table 5 lane 20: traA9(3X), cl.8 +HA-VP16-TraR, 12.5 μM C8-AHL): 65.4 and 65.3 and 60.5; 4, 5, 6 (replicate GUS activities, +inducer) ([4]; Table 6 lane 2: Tra box(3X), cl.5 +HA-VP16-TraR, 12.5 μM C8-AHL): 1350.6 and 1542.2 and 1835.6; 4, 5, 6 (replicate GUS activities, +inducer) ([4]; Table 6 lane 4: TraA1(3X), cl.35 +HA-VP16-TraR, 12.5 μM C8-AHL): 1426.4 and 1490.9 and 1763.9; 4, 5, 6 (replicate GUS activities, +inducer) ([4]; Table 6 lane 6: TraA2(3X), cl.43 +HA-VP16-TraR, 12.5 μM C8-AHL): 1757.9 and 2255.2 and 2158.0; 4, 5, 6 (replicate GUS activities, +inducer) ([4]; Table 6 lane 8: TraA3(3X), cl.4 +HA-VP16-TraR, 12.5 μM C8-AHL): 106.3 and 96.1; 4, 5, 6 (replicate GUS activities, +inducer) ([4]; Table 6 lane 10: TraA4(3X), cl.23 +HA-VP16-TraR, 12.5 μM C8-AHL): 108.1 and 108.3 and 112.6; 4, 5, 6 (replicate GUS activities, +inducer) ([4]; Table 6 lane 12: TraA5(3X), cl.2 +HA-VP16-TraR, 12.5 μM C8-AHL): 91.6 and 72.7 and 82.6; 4, 5, 6 (replicate GUS activities, +inducer) ([4]; Table 6 lane 14: TraA6(3X), cl.21 +HA-VP16-TraR, 12.5 μM C8-AHL): 1.4 and 1.9 and 6.3; 4, 5, 6 (replicate GUS activities, +inducer) ([4]; Table 6 lane 16: TraA7(3X), cl.15 +HA-VP16-TraR, 12.5 μM C8-AHL): 216.9 and 217.5 and 275.9; 4, 5, 6 (replicate GUS activities, +inducer) ([4]; Table 6 lane 18: TraA8(3X), cl.4 +HA-VP16-TraR, 12.5 μM C8-AHL): 1774.0 and 1839.9 and 1663.3; 4, 5, 6 (replicate GUS activities, +inducer) [4, 9]: 307.2 and 197.9 and 183.9; +inducer (average GUS activity) [4, 9]: 229.7; 4, 5, 6 (replicate GUS activities, +inducer) ([4]; Table 6 lane 22: TraA10(3X), cl.17 +HA-VP16-TraR, 12.5 μM C8-AHL): 621.1 and 629.5 and 672.7; 4, 5, 6 (replicate GUS activities, +inducer) ([4]; Table 6 lane 24: TraA-1(3X), cl.14 +HA-VP16-TraR, 12.5 μM C8-AHL): 25.0 and 30.0; 4, 5, 6 (replicate GUS activities, +inducer) ([4]; Table 7 lane 3: TraA8(4X), cl.16 +HA-VP16-TraR, 12.5 μM C8-AHL): 1190.9 and 991.1 and 863.8; 4, 5, 6 (replicate GUS activities, +inducer) ([4]; Table 7 lane 5: TraA8(3X), cl.4(60 μg) +TraR, 12.5 μM C8-AHL): 1867.2 and 1559.0 and 1569.7; 4, 5, 6 (replicate GUS activities, +inducer) ([4]; Table 7 lane 8: TraA8(3X), cl.4(25 μg) + TraR + TraM, 12.5 μM C8-AHL): 13.5 and 9.6 and 12.1; 4, 5, 6 (replicate GUS activities, +inducer) ([4]; Table 7 lane 9: TraA8(3X), cl.4 (25 μg) + TraR + TraS, 12.5 μM C8-AHL): 279.4 and 224.4 and 241.0; 4, 5, 6 (replicate GUS activities, +inducer) ([4]; Table 7 lane 10: TraA8(3X), cl.4 (25 μg) + TraR + CAT, 12.5 μM C8-AHL): 698.2 and 680.1 and 908.4; 4, 5, 6 (replicate GUS activities, +inducer) ([4]; Table 8 lane 3: TraA8(4X) +TraR, 25 μM (row 0/25 μM)): 7034.5 and 8005.8 and 7531.5
